Results reported in article PMC10208956, “Microbial peptides activate tumour-infiltrating lymphocytes in glioblastoma” (Nature, 2023).

Experiments:
[1] = tested on: sorted CD4+ PE and FITC TCRVβ+ TILs; test: Proliferation of TCRBV-sorted CD4+ TILs (without TCRBV6.1 and TCRBV6.2); format: cell-based, human; conditions: sheet 6b
Text: TILs expressing specific TCRBVs were isolated from bulk TILs using a panel of 22 fluorescently labelled TCRBV antibodies that detect 27 different TCRBVs. Twelve TCRBV antibodies were labelled with PE and 10 with FITC (Beckman Coulter). […] After another wash, cells were stained with CD4 (1:100) (APC anti-human CD4, eBioscience), CD8 (1:100) (Pacific blue anti-human CD8, BioLegend), TCRBV-PE (1:25) (Beckman Coulter) and TCRBV-FITC (1:25) (Beckman Coulter) antibodies (Supplementary Table 12) for 30 min. Finally, cells were sorted, seeded at 5 × 10^4 cells per well in T cell medium without h-IL-2 and rested for 1 day before stimulation with 2 × 10^5 cells per well of irradiated autologous PBMCs (45 Gy) and peptide (10 µM).
Two populations of CD4^+ PE-TCRVβ^+ and CD4^+ FITC-TCRVβ^+ were sorted and later mixed together. […] Specific amount of each cytokine/chemokine (pg/ml) was calculated by subtracting the cytokines in the negative control cultures (no peptide control). Source data

[2] = tested on: bulk TILs (patient 1635WI); test: Cytokine and chemokine secretion of bulk TILs stimulated with IPdBPs; format: cell-based, human; set-up: key to CD40 Ligand / Flt-3 Ligand / GM-CSF / Granzyme B / IFN-α / IFN-γ / IL-1rα / IL-1α / IL-1β / IL-2 / IL-3 / IL-4 / IL-5 / IL-6 / IL-7 / IL-10 / IL-12p70 / IL-13 / IL-15 / IL-17A / IL-33 / TNF-α / RANTES: pg/mL, negative-control amount subtracted; CXCL2/GROβ / CXCL10/IP-10 / CCL2/MCP-1 / CCL3/MIP-1α / CCL4/MIP-1β: unit not given beside the values; conditions: secretion by bulk TILs after peptide stimulation; sheet 1e
Text: Fig. 1 Elution of HLA class II-presented bacterial peptides from 19 glioblastomas and the stimulatory effect of IPdBPs on bulk TILs. a, Schematic of the immunopeptidome analyses of glioblastoma tissue, from which eluted peptides were annotated using the UniProt bacteria database (1). TILs or peripheral memory T cells were stimulated with IPdBPs (2 and 3). LC–MS, liquid chromatography–mass spectrometry; PBMC, peripheral blood mononuclear cell. The images in panel a were created using BioRender (https://biorender.com). b, Number of unique IPdBPs in patients with glioblastoma (n = 19) (data from patient 1635WI contains both primary and recurrent tumours together), with 344 unique IPdBPs identified (left). These peptides originated from 255 and 199 unique proteins and bacteria, respectively (3 technical replicates). […] As a control, peptidome data were also annotated using human protein database to identify eluted self-peptides. As shown, most of HLA class II-bound peptides are self-(human) peptides. IPdBPs of primary (bottom left, n = 18) and recurrent (bottom right, n = 23) tumours were separately annotated to their source bacteria at the phylum level. d, Bulk TILs (patient 1635WI) were stimulated with IPdBPs (See Supplementary Table 8), each in five replicate wells, and proliferation was measured after 5 days via ^3H-thymidine incorporation. […] The data are expressed as the mean value of all wells ± s.e.m. SIN3A* peptide was used as a positive control as TILs recognize this tumour antigen. T cells with APCs without any stimuli were used as a negative control. e, Heatmap of cytokine and chemokine secretion of TILs stimulated with three IPdBPs, which weakly stimulated proliferation. The secretion of each cytokine and chemokine was calculated by subtracting the corresponding cytokine and chemokine amount (pg ml^−1) of the negative control. TILs with APCs without any stimuli were used as a negative control. Also see Extended Data Fig. 1. Source data
Supernatants from each experiment were harvested a day before adding thymidine and frozen at −20 °C. Cytokines were measured using ELISA for human IFNγ ELISA MAX (BioLegend), human GM-CSF DuoSet ELISA (R&D Systems) and bead-based assays. A Synergy H1 hybrid multi-mode reader (Agilent) was used to measure the absorbance. The LEGENDplex Multi-analyte Flow Assay kit (BioLegend) is a 13-plex human TH cytokine panel, which includes IFNγ, TNF, IL-2, IL-4, IL-5, IL-6, IL-9, IL-10, IL-13, IL-17A, IL-17F, IL-21 and IL-22. […] LSR Fortessa Flow Cytometer (BD Biosciences) was used to measure cytokines, and data were analysed using FlowJo (Tree Star). The Human XL Cytokine Luminex Performance Assay Fixed Panel (R&D Systems) contains 45 analytes covering a broad range of various chemokines and cytokines.

Substance: Ac-QPVEFNHAIHYVN-NH2 [SIN3A*]
- Proliferation (SI) of sorted CD4+ TILs ([1]; replicate 1): 9.2018
- Proliferation (SI) of sorted CD4+ TILs ([1]; replicate 2): 10.7366
- Proliferation (SI) of sorted CD4+ TILs ([1]; replicate 3): 6.162
- CCL2/MCP-1 [2]: 2816.44
- CCL3/MIP-1α [2]: 29.38
- CCL4/MIP-1β [2]: 288.41
- CCL11/Eotaxin [2]: 0
- CCL19/MIP-3β [2]: 3.84
- CCL20/MIP-3α [2]: 5.69
- CD40 Ligand [2]: 1225.7
- CXCL1/GROα [2]: 401.05
- CXCL2/GROβ [2]: 208.21
- CXCL8/IL-8 [2]: 3621.56
- CXCL10/IP-10 [2]: 192.55
- Flt-3 Ligand [2]: 87.97
- GM-CSF [2]: 322.89
- Granzyme B [2]: 136.59
- IFN-α [2]: 1.52
- IFN-γ [2]: 41.34
- IL-1rα [2]: 1593.54
- IL-1α [2]: 6.01
- IL-1β [2]: 5.99
- IL-2 [2]: 5.92
- IL-3 [2]: 55.24
- IL-4 [2]: 3.08
- IL-5 [2]: 16.46
- IL-6 [2]: 23.1
- IL-7 [2]: 0.95
- IL-10 [2]: 62.69
- IL-12p70 [2]: 0
- IL-13 [2]: 67.23
- IL-15 [2]: 2.11
- IL-17A [2]: 2.07
- IL-17E/IL-25 [2]: 0
- IL-33 [2]: 6.61
- RANTES [2]: 135
- TNF-α [2]: 366.07
